Measurements: patent publication US11666533B2, “Emulsion formulations of multikinase inhibitors” (Cloudbreak Therapeutics, LLC, priority 2018, dated 2023)
Converted amounts (≈) assume the structure as drawn.

What was measured:
[1] = Solubility of nintedanib in a representative emulsion system (F70); format: physicochemical; settings: aqueous with cosolvent or surfactant or cyclodextrin; emulsion system: castor oil 1, polysorbate 80 1, polyoxyl-35 castor oil 2, water 95, none in Table 6
Source text: Various emulsion systems were identified for investigation based on the solubilizer results.

[2] = Solubilizer screen for nintedanib (Example 3); format: physicochemical; settings: for pH: pH of filtrate
Method: Tare 1.5 mL Eppendorf tube 2. […] Add solubilizer and record weight 4. Add water pH 5 (except F3 & F4) and record weight 5. Beadbeater mix for 120 seconds […] Place on rotating mixer for overnight at ambient temperature 7. Filter through 0.2 μm SPIN-X centrifuge filter 8. Measure pH of filtrate 9. Assay filtrate using CBT-001 standard solution

- solubility [1]: 3000 to 5000 µg/mL (≈ 5.56 to 9.27 mM)
- pH ([2]; solubilizer BZA): 5.6
- pH ([2]; solubilizer BZK): 5.6
- pH ([2]; solubilizer EtOH): 6.1
- pH ([2]; solubilizer PEG 400): 5.6
- pH ([2]; solubilizer PEG 8000): 6.0
- pH ([2]; solubilizer PG): 6.0
- pH ([2]; solubilizer PLXMR 188): 6.5
- pH ([2]; solubilizer PLXMR 407): 6.3
- pH ([2]; solubilizer polysorbate 20): 6.6
- pH ([2]; solubilizer polysorbate 80): 6.7
- Nintedanib solubility ([2]; solubilizer BZA (1% benzyl alcohol in water, F-1)): 0.01 mg/g
- Nintedanib solubility ([2]; solubilizer BZK (1% in water, F-5)): 0.20 mg/g
- Nintedanib solubility ([2]; solubilizer Castor oil (99.5%, F-3)): 0.37 mg/g
- Nintedanib solubility ([2]; solubilizer EtOH (1% ethanol in water, F-2)): 0.01 mg/g
- Nintedanib solubility ([2]; solubilizer Mineral oil (99.5%, F-4)): 0.00 mg/g
- Nintedanib solubility ([2]; solubilizer PEG 400 (5% in water, F-10)): 0.17 mg/g
- Nintedanib solubility ([2]; solubilizer PEG 8000 (2% in water, F-11)): 0.01 mg/g
- Nintedanib solubility ([2]; solubilizer PG (1% propylene glycol in water, F-12)): 0.01 mg/g
- Nintedanib solubility ([2]; solubilizer PLXMR 188 (1% Poloxamer 188 in water, F-8)): 0.01 mg/g
- Nintedanib solubility ([2]; solubilizer PLXMR 407 (1% Poloxamer 407 in water, F-9)): 0.01 mg/g
- Nintedanib solubility ([2]; solubilizer polysorbate 20 (1% in water, F-6)): 0.06 mg/g
- Nintedanib solubility ([2]; solubilizer polysorbate 80 (1% in water, F-7)): 0.25 mg/g
SMILES: COC(=O)c1ccc2c(c1)NC(=O)/C2=C(\Nc1ccc(N(C)C(=O)CN2CCN(C)CC2)cc1)c1ccccc1 [nintedanib]
